Earlier results, collected in patent US20220152157A1 (priority 2020, published 2022).
Like-named read-outs stand apart in the source and are kept apart here.

Experiments:
[1] = test system: human respiratory viruses; settings: combined with ribavirin, in vitro
[2] = test system: human respiratory viruses; settings: combined with ribavirin, experimental animal models
virus [3] = settings: mice
pulmonary inflammation = settings: in vivo
influenza A virus = settings: for membrane convergence of virus and host cell: influenza A, model MDCK cells
virus [4] = settings: ferrets
[5] = test system: Toll-like receptors (TLR)

| Compound | antiviral effects of the combination [1] | antiviral effects of the combination [2] | viricidal effect (virus [3]) | lowering of total inflammatory cell infiltrates (neutrophils and lymphocytes) (pulmonary inflammation) | virus-induced proinflammatory cytokines (pulmonary inflammation) | binding affinity for the influenza A virus (influenza A virus) | binding of the influenza A virus to the surrogate host cells (influenza A virus) | membrane convergence of virus and host cell (influenza A virus) | viricidal effect (virus [4]) | deactivation of Toll-like receptors (TLR) [5] |
| --- | --- | --- | --- | --- | --- | --- | --- | --- | --- | --- |
| CC(N)C12CC3CC(CC(C3)C1)C2 (centres unmarked) [Rimantadine] | increased antiviral effects | increased antiviral effects | – | – | – | – | – | – | – | – |
| 1-palmitoyl-2-oleoyl-sn-glycero-3-phosphoglycerol [POPG] | – | – | viricidal | > 90% | reduced | high binding affinity | prevent the binding | inhibited | viricidal | deactivators of Toll-like receptors |
| NC12CC3CC(CC(C3)C1)C2 [amantadine] | increased antiviral effects | increased antiviral effects | – | – | – | – | – | – | – | – |
| CCCCC/C=C\C/C=C\C/C=C\C/C=C\CCCC(=O)OC(COC(=O)CCCCCCCCCCCCCCCCC)COP(=O)(O)OC1C(O)C(O)C(O)C(O)C1O (centres unmarked) [PI, phosphatidyl inositol] | – | – | – | – | reduced | high binding affinity | prevent the binding | inhibited | – | deactivators of Toll-like receptors |
